Assay type in all cases: cell-based
Assay [1] has as its system U138-MG (Glioblastoma). Description: In vitro cytotoxicity, MTT assay, U138-MG. To be noted: Homo sapiens, U138-MG, 72 h, read-out: Cytotoxicity. On the procedure:
(§1) The in vitro cytotoxicity of a selection of compounds were evaluated in a panel of cell lines using the standard MTT assay for a 72 hour incubation period (Table 2). Free payloads produced cytotoxicities in the nanomolar range.
(§2) Tumor cell lines were maintained in RPMI1640 medium supplemented with 10% heat-inactivated fetal bovine serum, 2 mM L-glutamine and 1 mM sodium pyruvate. 1800 cells per well were seeded in a volume of 180 μl in a 96-well flat bottom polystyrene plate. The cells were allowed to adhere overnight at 37° C. in a CO2 incubator. Ligands were initially formulated in DMSO, and stocks stored at −80° C. They were then further formulated at lox concentration in RPMI1640 medium. 20 ul of diluted samples were added into each treatment well. On each plate, blank wells with no cells, and untreated wells containing cells, were included. Plates were then cultured at 37° C. in a CO2 incubator for 72 hrs. Cytotoxicity was evaluated using a tetrazolium salt-based assay, the MTT assay. After 72 hours, the supernatant was removed from each well and 200 μl of a sterile filtered 500 μg/ml MTT solution in water added to each well. The plates were then incubated at 37° C. in a CO2 incubator for 4 hrs. The supernatant was then removed and the formazan crystals formed solubilized by adding 150 μl of DMSO to each well. The plate was then read on a plate reader at 540 nm, and percentage cell survival calculated as follows: ((mean absorbance treated wells at concentration x−mean absorbance blank wells)+(mean absorbance untreated wells at concentration x−mean absorbance blank wells))×100. Data were plotted as concentration in nM vs. % cell survival in Microsoft Excel, and IC50 values (concentration where cell survival is reduced by a half) were determined from the graph.
Background: Tetrazolium assays rely on reduction of a dye to a coloured formazan, in cell work by metabolically active cells.

Assay [2] concerns Klebsiella pneumoniae KP4631. As to the kind of experiment: MIC assay, Klebsiella pneumoniae KP4631. To be noted: Klebsiella pneumoniae, KP4631. The method, then: The antimicrobial activity of a selection of compounds were evaluated in a Gram-negative, Gram-positive and multi-resistant bacteria using the standard minimum inhibitory concentration (MIC) assay for an overnight (16-20 hour) incubation period. Commercially marketed antibiotics (Table 3) were used as positive controls during the study.
Mueller-Hinton broth (MH Broth) (Sigma-Aldrich; Millipore, cat. no. 70192) and Mueller-Hinton agar (MHA) (Sigma-Aldrich; Millipore, cat. no. 70191) were prepared as per manufacturer's instructions and sterilized by autoclaving. Approximately 20 mL of MHA was poured onto 15×100 mm petri dishes and allowed to set. Agar plates were then stored in plastic bags in an inverted position at 4° C.
Bacterial strains were provided in the form of a glycerol stock, stored at −80° C. For the purpose of preparation of bacterial suspension, appropriate strains were removed from −80° C. storage onto dry ice and not allowed to freeze-thaw.
Stock solutions of 16, 45 and 73 were provided in DMSO at 1.28 mg/mL concentration. From this stock solution, working solutions of the desired concentration were prepared by diluting with MHB.
MIC assay methodology was adapted from previously published work.
Bacterial isolate to be tested was streaked onto a nutrient-rich MH agar plate and incubated overnight at 37° C. in order to obtain single colonies.
After overnight incubation, single colonies with the same morphological appearance were chosen from the agar plate. These were touched using a sterile loop and transferred into a tube containing 10 mL of a MH broth. They were then mixed using vortex mixer and incubated at 35-37° C. in a shaker at 200 r.p.m. overnight.
Determination of OD600 and cfu/mL count OD600 (the optical density of a sample measured at a wavelength of 600 nm) of the overnight culture was measured. Because of the loss of linearity at OD600 values […], it was necessary to dilute the sample until the OD600 value was below 1.0. For all tested bacteria, a dilution of 1:10 was appropriate (100 μL in 900 μL broth).
The overnight culture was then diluted 1:100 using sterile tubes and MH broth (dilution: 10^−2). Serial dilution was then performed six times until dilution of 10^−8 was reached. 100 μL of dilutions 10^−7 and 10^−8 were plated onto MH agar plates in triplicate using a sterile cell spreader and incubated overnight at 37° C.
After overnight incubation, colonies on plates were counted and cfu per mL calculated. The following formula was applied: […]
After overnight incubation, the OD600 was measured and the overnight culture was diluted accordingly to obtain 1×10^8 cfu/mL. […]
The 96-well plates were read using a SpectraMax plate reader at an absorbance of 600 nm. […]

The test system of assay [3] is A431 (Skin). Description: In vitro cytotoxicity, MTT assay, A431. The settings on record: Homo sapiens, A-431, 72 h, read-out: Cytotoxicity. The method, then: as §1, §2

Broadly, the MIC is the lowest concentration that inhibits growth of the organism. Read a high MIC as weaker potency.

On to `COc1cc2c(cc1OCCCC(=O)Nc1cc(C(=O)Nc3ccc(-c4cc(C(=O)Nc5ccc(N)cc5)n(C)c4)cc3)n(C)c1)NC[C@@H]1CCCCN1C2=O` [Compound 16, (S)—N-(4-Aminophenyl)-4-(4-(4-(4-((2-methoxy-12-oxo-5,6,6a,7,8,9,10,12-octahydrobenzo[e]pyrido[1,2-a][1,4]diazepin-3-yl)oxy)butanamido)-1-methyl-1H-pyrrole-2-carboxamido)phenyl)-1-methyl-1H-pyrrole-2-carboxamide], for which the IC50 in assay [1] came out at 0.184 µM; in assay [3], 0.0615 µM. This molecule gave an MIC in assay [2] of more than 8 µg/mL.

The values are drawn from patent US20210371413A1, “POLYCYCLIC AMIDES AS CYTOTOXIC AGENTS” (FEMTOGENIX LIMITED, priority 2018, published 2021).
